One test has as its target T1, Cholinesterase (Equus caballus, UniProt P81908). Description: Inhibition of equine serum BChE preincubated for 15 mins followed by addition of S-butyrylthiocholine chloride as substrate measured after 30 mins by Ellman's microplate assay. Background: DTNB colorimetry detects thiols as they appear.
Cholinesterase (Equus caballus), sequence (P81908 whole entry): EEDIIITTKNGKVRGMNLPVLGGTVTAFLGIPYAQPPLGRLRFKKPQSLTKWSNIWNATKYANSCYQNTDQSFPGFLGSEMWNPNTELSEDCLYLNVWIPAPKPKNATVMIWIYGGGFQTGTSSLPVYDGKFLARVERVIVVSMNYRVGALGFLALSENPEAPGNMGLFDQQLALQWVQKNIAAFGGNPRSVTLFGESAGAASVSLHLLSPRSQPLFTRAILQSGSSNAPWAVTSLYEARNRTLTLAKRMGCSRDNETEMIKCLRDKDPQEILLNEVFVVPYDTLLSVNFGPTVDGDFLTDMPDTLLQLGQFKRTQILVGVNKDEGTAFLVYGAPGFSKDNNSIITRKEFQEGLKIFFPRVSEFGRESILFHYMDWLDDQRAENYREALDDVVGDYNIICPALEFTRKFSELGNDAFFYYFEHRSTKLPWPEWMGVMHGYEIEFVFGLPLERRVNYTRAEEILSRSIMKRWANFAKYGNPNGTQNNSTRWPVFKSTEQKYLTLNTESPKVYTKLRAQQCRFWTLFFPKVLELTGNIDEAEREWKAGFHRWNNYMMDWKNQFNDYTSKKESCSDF
T1 sequence (P81908 whole entry): as above
As usually defined, the IC50 is the concentration at which inhibition is half-maximal. A higher IC50 goes with weaker potency. `COc1cc2c3c(c1OC)-c1cc4c(cc1C[C@@H]3NCC2)OCO4` came in with a 50% inhibitory concentration (IC50) of 94.4 µM.
`COc1cc(CCN(C)C)c2ccc3ccccc3c2c1OC` showed an IC50 of 19.3 µM.
On the same count and under the same terms, the figure for `COc1ccc(C[C@H]2c3cc(O)c(OC)cc3CCN2C)cc1O` [(S)-RETICULINE] is 65 µM; for `COc1c(OC)c(OC)c2c(ccc3ccccc32)c1CCN(C)C` it is 3.95 µM; for `COc1cc2c(cc1O)C[C@H]1c3c(cc(OC)c(OC)c3-2)CCN1C` it is 219 µM.
On to `COc1cc2c3c(c1O)C1(CCC(O)CC1)CC3NCC2` (stereo not given), for which inhibition was half-maximal at 288 µM (IC50).
`COc1ccc(C2=C(c3ccc(O)cc3)CN3CCC[C@@H]3C2)cc1OC` gave an IC50 of 167 µM.

In a further test the target is Acetylcholinesterase (Electrophorus electricus) (UniProt O42275). Briefly: Inhibition of electric eel AChE at 100 ug/ml preincubated for 15 mins followed by addition of acetylthiocholine iodide as substrate measured after 30 mins by Ellman's microplate assay.
Acetylcholinesterase (Electrophorus electricus), sequence (O42275 24-633 limits assumed): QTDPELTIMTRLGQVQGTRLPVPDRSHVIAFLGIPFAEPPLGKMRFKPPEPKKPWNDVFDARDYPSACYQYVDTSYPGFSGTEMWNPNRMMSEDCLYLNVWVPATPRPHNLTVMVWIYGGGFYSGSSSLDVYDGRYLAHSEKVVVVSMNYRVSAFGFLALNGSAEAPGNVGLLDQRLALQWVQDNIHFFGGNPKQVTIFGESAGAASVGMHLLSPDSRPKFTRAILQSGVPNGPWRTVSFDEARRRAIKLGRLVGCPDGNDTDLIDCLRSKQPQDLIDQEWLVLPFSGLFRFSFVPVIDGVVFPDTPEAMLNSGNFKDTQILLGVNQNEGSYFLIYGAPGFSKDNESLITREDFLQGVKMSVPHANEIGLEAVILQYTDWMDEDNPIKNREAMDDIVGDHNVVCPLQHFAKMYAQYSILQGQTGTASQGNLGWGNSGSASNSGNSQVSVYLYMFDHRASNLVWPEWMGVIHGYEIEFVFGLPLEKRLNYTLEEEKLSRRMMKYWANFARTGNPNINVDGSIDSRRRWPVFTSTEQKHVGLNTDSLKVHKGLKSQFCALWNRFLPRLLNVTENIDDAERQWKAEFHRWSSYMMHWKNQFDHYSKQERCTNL
The term inhibition denotes the drop in the measured response relative to a control, in per cent. High values mean strong suppression, low ones little suppression. In the case of `COc1cc2c(cc1O)C[C@@H]1NCCc3cc(OC)c(OC)c-2c31`, the inhibition worked out at 17.5%.
On the same count and under the same terms, the figure for `COc1cc2c3c(c1OC)-c1cc4c(cc1C[C@@H]3NCC2)OCO4` is 50.4%; for `COc1cc2c(cc1O)CCN(C)C2Cc1ccc(O)cc1` (stereo not given) it is 14.9%.
Still for that read-out and setting: the result for `COc1cc(CCN(C)C)c2ccc3ccccc3c2c1OC` reads 2.06%.
The molecule `COc1ccc(C[C@H]2c3cc(O)c(OC)cc3CCN2C)cc1O` [(S)-RETICULINE] had an inhibition of 53%.
On the same count and under the same terms, the figure for `COc1c(OC)c(OC)c2c(ccc3ccccc32)c1CCN(C)C` is 31.6%; for `COc1cc2c(cc1O)C[C@H]1c3c(cc(OC)c(OC)c3-2)CCN1C` it is 38.8%; for `COc1cc2c3c(c1O)C1(CCC(O)CC1)CC3NCC2` (stereo not given) it is 27.9%.
Same read-out and setting: the figure for `COc1ccc(C2=C(c3ccc(O)cc3)CN3CCC[C@@H]3C2)cc1OC` is 51.4%.

The next test concerns the target Cholinesterase (Equus caballus) (UniProt P81908). Description: Inhibition of equine serum BChE at 100 ug/ml preincubated for 15 mins followed by addition of S-butyrylthiocholine chloride as substrate measured after 30 mins by Ellman's microplate assay.
`COc1cc2c(cc1O)C[C@@H]1NCCc3cc(OC)c(OC)c-2c31` registered an inhibition of 22.6%.
Still for that read-out and setting: the figure for `COc1cc2c3c(c1OC)-c1cc4c(cc1C[C@@H]3NCC2)OCO4` is 75.8%; for `COc1cc2c(cc1O)CCN(C)C2Cc1ccc(O)cc1` (stereo not given) it is 37.3%; for `COc1cc(CCN(C)C)c2ccc3ccccc3c2c1OC` it is 83.9%.
On to `COc1ccc(C[C@H]2c3cc(O)c(OC)cc3CCN2C)cc1O` [(S)-RETICULINE], for which the inhibition came to 84.1%.
As to `COc1c(OC)c(OC)c2c(ccc3ccccc32)c1CCN(C)C`, the inhibition stood at 95.2%.
Still for that read-out and setting: the figure for `COc1cc2c(cc1O)C[C@H]1c3c(cc(OC)c(OC)c3-2)CCN1C` is 51%; for `COc1cc2c3c(c1O)C1(CCC(O)CC1)CC3NCC2` (stereo not given) it is 52.1%; for `COc1ccc(C2=C(c3ccc(O)cc3)CN3CCC[C@@H]3C2)cc1OC` it is 59.4%.

The next test has as its target T1, Cholinesterase. Description: Mixed-type inhibition of equine serum BChE preincubated for 15 mins followed by addition of S-butyrylthiocholine chloride as substrate measured after 30 mins by Lineweaver-Burk plot analysis.
For orientation: Ki means a dissociation constant, usually derived from enzyme kinetics or from competition with a known ligand. `COc1c(OC)c(OC)c2c(ccc3ccccc32)c1CCN(C)C`: affinity was put at a Ki of 6.72 µM.

Test system in a further test: not listed separately
Briefly: Selectivity ratio, ratio of IC50 for equine serum BChE to electric eel AChE.
In the case of `COc1cc2c3c(c1OC)-c1cc4c(cc1C[C@@H]3NCC2)OCO4`, the Ratio IC50 is 0.46.
On the same count and under the same terms, the result for `COc1ccc(C[C@H]2c3cc(O)c(OC)cc3CCN2C)cc1O` [(S)-RETICULINE] reads 0.22; that for `COc1ccc(C2=C(c3ccc(O)cc3)CN3CCC[C@@H]3C2)cc1OC`, 0.83.

Test system in a further test: not listed separately
Description: Selectivity ratio, ratio of IC50 for electric eel AChE to equine serum BChE.
On to `COc1cc2c3c(c1OC)-c1cc4c(cc1C[C@@H]3NCC2)OCO4`, for which the Ratio IC50 stood at 2.18.
The same measure, in the same setting: the figure for `COc1ccc(C[C@H]2c3cc(O)c(OC)cc3CCN2C)cc1O` [(S)-RETICULINE] is 4.63.
In the case of `COc1ccc(C2=C(c3ccc(O)cc3)CN3CCC[C@@H]3C2)cc1OC`, the Ratio IC50 came out at 1.21.

The target of another test is Acetylcholinesterase (Electrophorus electricus, UniProt O42275). Briefly: Inhibition of electric eel AChE preincubated for 15 mins followed by addition of acetylthiocholine iodide as substrate measured after 30 mins by Ellman's microplate assay.
Acetylcholinesterase, sequence (O42275 whole entry): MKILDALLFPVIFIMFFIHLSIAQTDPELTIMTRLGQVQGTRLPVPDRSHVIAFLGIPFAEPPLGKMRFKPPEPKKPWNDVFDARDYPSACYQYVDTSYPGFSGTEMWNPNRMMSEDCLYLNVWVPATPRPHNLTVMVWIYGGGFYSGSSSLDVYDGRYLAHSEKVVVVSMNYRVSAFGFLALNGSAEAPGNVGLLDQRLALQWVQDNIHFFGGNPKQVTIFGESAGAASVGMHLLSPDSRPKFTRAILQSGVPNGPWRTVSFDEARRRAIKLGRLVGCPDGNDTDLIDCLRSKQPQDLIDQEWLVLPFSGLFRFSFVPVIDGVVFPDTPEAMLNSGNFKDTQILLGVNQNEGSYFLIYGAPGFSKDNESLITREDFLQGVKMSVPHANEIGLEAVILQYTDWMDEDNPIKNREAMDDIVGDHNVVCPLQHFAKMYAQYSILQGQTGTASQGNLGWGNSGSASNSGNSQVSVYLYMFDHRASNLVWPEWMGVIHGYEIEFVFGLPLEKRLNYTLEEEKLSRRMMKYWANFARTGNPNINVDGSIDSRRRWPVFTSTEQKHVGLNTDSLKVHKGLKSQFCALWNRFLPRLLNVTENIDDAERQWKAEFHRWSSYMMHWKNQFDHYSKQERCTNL
`COc1cc2c3c(c1OC)-c1cc4c(cc1C[C@@H]3NCC2)OCO4`: 206 µM corresponded to half-maximal inhibition (IC50).
Still for that read-out and setting: the result for `COc1ccc(C[C@H]2c3cc(O)c(OC)cc3CCN2C)cc1O` [(S)-RETICULINE] reads 301 µM; that for `COc1ccc(C2=C(c3ccc(O)cc3)CN3CCC[C@@H]3C2)cc1OC`, 202 µM.

For the origin of these results see ChEMBL document CHEMBL3826956, “Cholinesterase inhibitory activity of isoquinoline alkaloids from three Cryptocarya species (Lauraceae)” (Bioorg Med Chem, 2016).
